Data as given in US20220202929A1, “DRUG-RESISTANT INFLUENZA VIRUS STRAINS” (President and Fellows of Harvard College, priority 2019, published 2022).

Legend:
Format in all cases: cell-based, influenza A virus
[1] = test system: M2 S31N/G34E mutant influenza virus strain
[2] = test system: M2 S31N mutant influenza virus strain
[3] = test system: M2 S31N/L46P mutant influenza virus strain
[4] = test system: NA-H274Y mutant influenza virus strain

Structure (SMILES)	IC50 [1] [µM]	IC50 [2] [µM]	IC50 [3] [µM]	IC50 [4] [µM]
NC12CC3CC(CC(C3)C1)C2 [amantadine]	> 100	24.7	65.9	–
CCOC(=O)C1=C[C@@H](OC(CC)CC)[C@H](NC(C)=O)[C@@H](N)C1 [oseltamivir]	–	–	–	2.67
